{
  "source": "patent US7119077B1",
  "about": "“Multimeric forms of members of the steroid/thyroid superfamily of receptors with the ultraspiracle receptor” (The Salk Institute for Biological Studies, priority 1990, dated 2006)",
  "key": {"[1]": {"system": "EcR/usp", "assay": "Cotransfection CAT reporter assay with EcR and/or usp expression vectors in CV1 cells", "assay_type": "cell-based, monkey kidney cells (CV1)", "settings": "40 μM", "description": "(§1) Transfection was performed with calcium-phosphate precipitation method as described previously [Umesono et al., Nature 336:262–264 (1989)]. CV1 monkey kidney cells were maintained in Dulbecco's modified Eagle's medium (DMEM) supplemented with 10% calf bovine serum. The cells were transfected for 8–9 hours and then the DNA precipitates were washed away and replaced with fresh medium with 10% charcoal-resin double stripped fetal bovine serum. 20-hydroxy-ecdysone (Sigma; 10 mg/ml in ethanol), or ethanol alone was then given to the cells. 24–28 hours later, the cells were harvested. Beta-galactosidase (βGal) activity was measured and a normalized amount of extract was used for CAT assay (Umesono et al. (1989) supra]. The following amount of plasmid DNA was included in the 10 cm plate transfection: 250 ng each of CMX-EcR and RSV-GEcR; 500 ng of CMX-usp; 5 μg ΔMTV-EcRE5-CTA; 5 μg of βGal internal control plasmid CH111 (a derivative of CH110, Promega). The amount of CMX plasmid was kept constant in each transfection by adding CMX-luciferase. PGEM4 was added to bring the total amount of plasmid DNA to 15 μg per plate.\n(§2) Ecdysone response in CV1 cells was determined by using an ecdysone-responsive reporter gene (ΔMTV-EcRE5-CAT), which contains the same core hsp27-EcRE motif tested in DNA binding assay described earlier. The chloramphenicol acetyl transferase (CAT) activity induced by ecdysone was measured in the presence of different combinations of transfected EcR and usp expression vectors. CAT activity is expressed in FIG. 2 as the percentage of conversion which is normalized against the level in EcR alone at the presence of ecdysone assigned as one (column 1, shaded rectangle). The final concentration of 20-hydroxy-ecdysone (Sigma) is 40 μM. […] Cotransfection of EcR and usp together is shown in column 3 and the induction of CAT activity could be observed by about 3 fold.\n(§3) To test whether usp can complement the EcR activity as it did in the DNA binding assay, usp expression vector was cotransfected with EcR into CV1 cells. Cotransfection of usp with EcR indeed was able to confer a significant response to 20-OH-ecdysone (over 3 fold, FIG. 2A). […] The level of induction by EcR and usp in CV1 cells is significant but somewhat lower than expected compared with the interaction in DNA binding assay."}, "[2]": {"molecular_target": "T1, EcR/usp (Drosophila melanogaster, UniProt P34021)", "T1 construct": "expressed in transfected cells; host or cells: CV1 monkey kidney cells", "T1 sequence (P34021 1-878)": "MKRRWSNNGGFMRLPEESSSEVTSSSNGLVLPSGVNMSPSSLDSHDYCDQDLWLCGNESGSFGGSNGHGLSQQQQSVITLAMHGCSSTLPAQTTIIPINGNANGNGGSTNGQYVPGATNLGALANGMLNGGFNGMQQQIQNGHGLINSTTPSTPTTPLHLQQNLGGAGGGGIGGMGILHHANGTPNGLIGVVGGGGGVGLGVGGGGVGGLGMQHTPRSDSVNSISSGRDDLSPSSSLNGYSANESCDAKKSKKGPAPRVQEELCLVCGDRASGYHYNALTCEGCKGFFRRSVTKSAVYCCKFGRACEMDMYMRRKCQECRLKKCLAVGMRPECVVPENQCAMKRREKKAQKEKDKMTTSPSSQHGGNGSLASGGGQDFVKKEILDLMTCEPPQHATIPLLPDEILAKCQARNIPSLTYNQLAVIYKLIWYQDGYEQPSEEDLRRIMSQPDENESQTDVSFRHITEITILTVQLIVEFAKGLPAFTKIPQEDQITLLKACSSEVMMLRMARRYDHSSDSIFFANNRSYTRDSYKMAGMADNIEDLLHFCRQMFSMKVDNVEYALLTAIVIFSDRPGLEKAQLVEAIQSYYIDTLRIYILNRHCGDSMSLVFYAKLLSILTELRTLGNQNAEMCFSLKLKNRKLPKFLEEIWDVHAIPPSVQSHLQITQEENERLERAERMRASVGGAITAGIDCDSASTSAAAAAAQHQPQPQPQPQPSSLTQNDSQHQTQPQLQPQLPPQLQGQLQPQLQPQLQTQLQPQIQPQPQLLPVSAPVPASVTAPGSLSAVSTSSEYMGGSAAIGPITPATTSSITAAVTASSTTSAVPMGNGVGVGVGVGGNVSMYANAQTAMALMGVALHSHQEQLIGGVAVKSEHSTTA", "assay": "Cotransfection CAT reporter assay with EcR and/or usp expression vectors in CV1 cells", "assay_type": "cell-based, monkey kidney cells (CV1)", "settings": "CV1 cells transfected with EcR alone, ΔMTV-EcRE5-CAT reporter, 40 μM", "description": "as §1, §2, §3"}},
  "note": "“Also recorded” adds a separate entry of the source.",
  "data": [
    {"substance": "20-Hydroxyecdysone [20-OH-ecdysone]", "values": [
      {"measurement": "ecdysone responsiveness (CAT activity)", "setting": "[1]; CV1 cells transfected with usp alone, ΔMTV-EcRE5-CAT reporter", "result": "does not respond; also recorded: did not result in ecdysone responsiveness"},
      {"measurement": "ecdysone responsiveness (CAT activity)", "setting": "[1]; CV1 cells, parental ΔMTV-CAT reporter without EcRE", "result": "did not result in ecdysone responsiveness"},
      {"measurement": "ecdysone responsiveness (CAT activity)", "setting": "[1]; CV1 cells, parental ΔMTV-CAT reporter without EcRE, listed as ecdysone", "result": "does not respond"},
      {"measurement": "ecdysone responsiveness (CAT activity)", "setting": "[2]", "result": "does not respond"},
      {"measurement": "ecdysone responsiveness (CAT activity)", "setting": "[2]; listed as 20-hydroxy-ecdysone", "result": "failed to confer responsiveness"}
    ]}
  ]
}
